Experimental data taken from patent publication US20240409585A1, “MACROCYCLIC IMMUNOMODULATORS” (priority 2021, published 2024).
Numbered stars: 1 amine (or outer) side, 2 acyl side, 3 side chain; on linkers, the order of the positions; unused ones are H or OH. Bridge positions count the residues as written; N and C are the ends. Square brackets hold non-standard residues; d marks the D form. Peptide text beside a SMILES is read from it. * marks the point of attachment. ξ: configuration not given here. Phe(4-COOH) = N[C@@H](Cc1ccc(C(=O)O)cc1)C(=O)O; Tyr(Ph) = N[C@@H](Cc1ccc(Oc2ccccc2)cc1)C(=O)O; Bip = N[C@@H](Cc1ccc(-c2ccccc2)cc1)C(=O)O; dPhe(4-Cl) = N[C@H](Cc1ccc(Cl)cc1)C(=O)O; Ala(2-furyl) = N[C@@H](Cc1ccco1)C(=O)O; Phe(3-Me) = Cc1cccc(C[C@H](N)C(=O)O)c1; Val(3-OH) = CC(C)(O)[C@H](N)C(=O)O; X49 = O=C(C(N[*:1])C1CCOCC1)[*:2]; 3Pal = N[C@@H](Cc1cccnc1)C(=O)O; 4Pal = N[C@@H](Cc1ccncc1)C(=O)O; Cha = N[C@@H](CC1CCCCC1)C(=O)O; Cit = NC(=O)NCCC[C@H](N)C(=O)O; Ile(3ξ) = CCC(C)[C@H](N)C(=O)O; Thr(3ξ) = CC(O)[C@H](N)C(=O)O; Carboxymethyl = O=C(O)C*; NMeA = CN[C@@H](C)C(=O)O; Orn = NCCC[C@H](N)C(=O)O; Dab = NCC[C@H](N)C(=O)O

Molecular target: T1, PE-labeled human PD-L1-Ig binding to Jurkat cell line over-expressing human PD-1 (Jurkat-PD-1) (Homo sapiens, UniProt Q15116)
T1 construct: expressed in transfected cells; host or cells: Jurkat
Experiment: Jurkat-PD-1 Cell Binding High-Content Screening Assay (CBA): Method 1
Settings: Jurkat-hPD-1 cells, PE-labeled PD-L1-Ig 20 nM final; read-out: Jurkat HPDL1 PD1 IC50 (uM) (Method 1)

T1 sequence (Q15116 25-288): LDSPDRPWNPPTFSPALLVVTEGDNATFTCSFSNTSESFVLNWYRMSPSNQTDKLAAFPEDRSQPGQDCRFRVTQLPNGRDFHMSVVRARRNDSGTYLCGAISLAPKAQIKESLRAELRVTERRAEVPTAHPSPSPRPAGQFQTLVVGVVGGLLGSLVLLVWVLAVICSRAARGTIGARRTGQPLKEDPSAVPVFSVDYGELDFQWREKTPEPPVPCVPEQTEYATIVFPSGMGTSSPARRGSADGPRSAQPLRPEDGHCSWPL

Row | Structure (SMILES) | IC50 [µM]
1 | CCC(C)[C@@H]1NC(=O)[C@H](Cc2ccc(-c3ccccc3)cc2)NC(=O)[C@H](C(C)C)NC(=O)[C@H](Cc2c[nH]c3ccccc23)NC(=O)[C@H](CC(=O)O)NC(=O)[C@H](Cc2ccc(O)cc2)NC(=O)[C@H](Cc2ccco2)NC(=O)CSC[C@@H](C(=O)NC(C(N)=O)C2CCOCC2)NC(=O)[C@H](C(C)O)NC(=O)[C@H](C(C)(C)O)NC(=O)[C@H](CC2CCCCC2)NC(=O)[C@H](CC(N)=O)NC(=O)[C@@H](CC(C)C)NC(=O)[C@H](C)N(C)C1=O (stereo partly drawn) [Compound 2176] ({CH2CO}-[Ala(2-furyl)]YDWV[Bip][Ile(3ξ)][NMeA][dL]N[Cha][Val(3-OH)][Thr(3ξ)]C[X49]-NH2; thioether N-14) | 0.19
2 | CC(C)C[C@@H]1NC(=O)[C@H](Cc2c[nH]c3ccccc23)NC(=O)[C@H](CC(=O)O)NC(=O)[C@H](Cc2ccc(O)cc2)NC(=O)[C@H](Cc2ccccc2)NC(=O)CSC[C@@H](C(=O)N[C@@H](C)C(N)=O)NC(=O)[C@H](C(C)O)NC(=O)[C@H](CCN)NC(=O)[C@H](CC(C)C)NC(=O)[C@H](CC(N)=O)NC(=O)[C@@H](C)NC(=O)[C@H](C)N(C)C(=O)[C@H](C(C)C)NC(=O)[C@H](Cc2ccc(-c3ccccc3)cc2)NC1=O (some centres unmarked) [Compound 1534] ({CH2CO}-FYDWL[Bip]V[NMeA][dA]NL[Dab][Thr(3ξ)]CA-NH2; thioether N-14) | 0.49
3 | CC(C)C[C@@H]1NC(=O)[C@H](CCCNC(=N)N)NC(=O)[C@@H](Cc2ccc(Cl)cc2)NC(=O)[C@H](C)N(C)C(=O)[C@H](CCCNC(=N)N)NC(=O)[C@H](Cc2ccc(-c3ccccc3)cc2)NC(=O)[C@H](C(C)C)NC(=O)[C@H](Cc2c[nH]c3ccccc23)NC(=O)[C@H](CC(=O)O)NC(=O)[C@H](Cc2ccc(O)cc2)NC(=O)[C@H](Cc2ccccc2)NC(=O)CSC[C@@H](C(=O)N[C@@H](C)C(N)=O)NC(=O)[C@H]([C@@H](C)O)NC(=O)[C@H](C(C)C)NC1=O [Compound 1070] ({CH2CO}-FYDWV[Bip]R[NMeA][dPhe(4-Cl)]RLVTCA-NH2; thioether N-14) | 0.63
4 | CC(C)C[C@@H]1NC(=O)[C@H](Cc2c[nH]c3ccccc23)NC(=O)[C@H](CC(=O)O)NC(=O)[C@H](Cc2ccc(Oc3ccccc3)cc2)NC(=O)[C@H](Cc2ccccc2)NC(=O)CSC[C@@H](C(=O)N[C@@H](C)C(N)=O)NC(=O)[C@H](CO)NC(=O)[C@H](C(C)C)NC(=O)[C@H](CC(C)C)NC(=O)[C@H](CC(N)=O)NC(=O)[C@@H](C)NC(=O)[C@H](C)N(C)C(=O)[C@H](C(C)C)NC(=O)[C@H](Cc2ccc(-c3ccccc3)cc2)NC1=O [Compound 1813] ({CH2CO}-F[Tyr(Ph)]DWL[Bip]V[NMeA][dA]NLVSCA-NH2; thioether N-14) | 0.3
5 | Cc1cccc(C[C@@H]2NC(=O)[C@H](CC(=O)O)NC(=O)[C@H](Cc3ccc(OCC(=O)O)cc3)NC(=O)[C@H](Cc3ccncc3)NC(=O)CSC[C@@H](C(=O)N[C@@H](CCN)C(N)=O)NC(=O)[C@H](CCC(=O)O)NC(=O)[C@H](C(C)(C)O)NC(=O)[C@H](CC3CCCCC3)NC(=O)[C@H](CCN)NC(=O)[C@@H](CC(C)C)NC(=O)[C@H](C)N(C)C(=O)[C@H](Cc3ccc(OCC(=O)O)cc3)NC(=O)[C@H](Cc3ccc(-c4ccccc4)cc3)NC(=O)[C@H](Cc3ccc(C(=O)O)cc3)NC2=O)c1 [Compound 2189] ({CH2CO}-[4Pal]Y(Carboxymethyl)D[Phe(3-Me)][Phe(4-COOH)][Bip]Y(Carboxymethyl)[NMeA][dL][Dab][Cha][Val(3-OH)]EC[Dab]-NH2; thioether N-14) | 0.03
6 | CCNC(=O)[C@H](CCN)NC(=O)[C@@H]1CSCC(=O)N[C@@H](Cc2cccnc2)C(=O)N[C@@H](Cc2ccc(OCC(=O)O)cc2)C(=O)N[C@@H](CC(=O)O)C(=O)N[C@@H](Cc2cccc(C)c2)C(=O)N[C@@H](Cc2ccc(OCC(=O)O)cc2)C(=O)N[C@@H](Cc2ccc(-c3ccccc3)cc2)C(=O)N[C@@H](Cc2ccc(OCC(=O)O)cc2)C(=O)N(C)[C@@H](C)C(=O)N[C@H](CC(C)C)C(=O)N[C@@H](CCN)C(=O)N[C@@H](CC2CCCCC2)C(=O)N[C@@H](C(C)C)C(=O)N[C@@H]([C@@H](C)O)C(=O)N1 [Compound 1856] ({CH2CO}-[3Pal]Y(Carboxymethyl)D[Phe(3-Me)]Y(Carboxymethyl)[Bip]Y(Carboxymethyl)[NMeA][dL][Dab][Cha]VTC[Dab]-NHEt; thioether N-14) | 0.02

Results, then the molecule that gave them:

Row | IC50 [µM] | Structure (SMILES)
7 | 0.01 | CC[C@H](C)[C@@H]1NC(=O)[C@H](Cc2ccc(-c3ccccc3)cc2)NC(=O)[C@H](C(C)C)NC(=O)[C@H](Cc2c[nH]c3ccccc23)NC(=O)[C@H](CC(=O)O)NC(=O)[C@H](Cc2ccc(OCC(=O)O)cc2)NC(=O)[C@H](CC(N)=O)NC(=O)CSC[C@@H](C(=O)N[C@@H](C)C(N)=O)NC(=O)[C@H]([C@@H](C)O)NC(=O)[C@H](C(C)C)NC(=O)[C@H](CC(C)C)NC(=O)[C@H](CCN)NC(=O)[C@@H](CC(C)C)NC(=O)[C@H](C)N(C)C1=O [Compound 1396] ({CH2CO}-NY(Carboxymethyl)DWV[Bip]I[NMeA][dL][Dab]LVTCA-NH2; thioether N-14)
8 | 0.02 | CC(C)C[C@@H]1NC(=O)[C@H](Cc2c[nH]c3ccccc23)NC(=O)[C@H](CC(=O)O)NC(=O)[C@H](Cc2ccc(OCC(=O)O)cc2)NC(=O)[C@H](Cc2ccncc2)NC(=O)CSC[C@@H](C(=O)N[C@@H](C)C(N)=O)NC(=O)[C@H](CO)NC(=O)[C@H](C(C)C)NC(=O)[C@H](CC(C)C)NC(=O)[C@H](CC(N)=O)NC(=O)[C@@H](C)NC(=O)[C@H](C)N(C)C(=O)[C@H](C(C)C)NC(=O)[C@H](Cc2ccc(-c3ccccc3)cc2)NC1=O [Compound 1563] ({CH2CO}-[4Pal]Y(Carboxymethyl)DWL[Bip]V[NMeA][dA]NLVSCA-NH2; thioether N-14)
9 | 0.03 | CC(C)C[C@@H]1NC(=O)[C@H](CCN)NC(=O)[C@@H](CC(C)C)NC(=O)[C@H](C)N(C)C(=O)[C@H](CCCNC(N)=O)NC(=O)[C@H](Cc2ccc(-c3ccccc3)cc2)NC(=O)[C@H](C(C)C)NC(=O)[C@H](Cc2c[nH]c3ccccc23)NC(=O)[C@H](CC(=O)O)NC(=O)[C@H](Cc2ccc(C(=O)O)cc2)NC(=O)[C@H](Cc2cccnc2)NC(=O)CSC[C@@H](C(=O)N[C@@H](C)C(N)=O)NC(=O)[C@H]([C@@H](C)O)NC(=O)[C@H](C(C)C)NC1=O [Compound 1332] ({CH2CO}-[3Pal][Phe(4-COOH)]DWV[Bip][Cit][NMeA][dL][Dab]LVTCA-NH2; thioether N-14)
10 | 0.11 | CC(C)C[C@@H]1NC(=O)[C@H](CCN)NC(=O)[C@@H](CC(C)C)NC(=O)[C@H](C)N(C)C(=O)[C@H](CCC(=O)O)NC(=O)[C@H](Cc2ccc(-c3ccccc3)cc2)NC(=O)[C@H](C(C)C)NC(=O)[C@H](Cc2c[nH]c3ccccc23)NC(=O)[C@H](CC(=O)O)NC(=O)[C@H](Cc2ccc(OCC(=O)O)cc2)NC(=O)[C@H](CC(N)=O)NC(=O)CSC[C@@H](C(=O)N[C@@H](C)C(N)=O)NC(=O)[C@H]([C@@H](C)O)NC(=O)[C@H](C(C)C)NC1=O [Compound 1390] ({CH2CO}-NY(Carboxymethyl)DWV[Bip]E[NMeA][dL][Dab]LVTCA-NH2; thioether N-14)
11 | 0.06 | CC(C)C[C@@H]1NC(=O)[C@H](CCCN)NC(=O)[C@@H](CC(C)C)NC(=O)[C@H](C)N(C)C(=O)[C@H](CCCNC(=N)N)NC(=O)[C@H](Cc2ccc(-c3ccccc3)cc2)NC(=O)[C@H](C(C)C)NC(=O)[C@H](Cc2c[nH]c3ccccc23)NC(=O)[C@H](CC(=O)O)NC(=O)[C@H](Cc2ccc(C(=O)O)cc2)NC(=O)[C@H](CC(N)=O)NC(=O)CSC[C@@H](C(=O)N[C@@H](C)C(N)=O)NC(=O)[C@H]([C@@H](C)O)NC(=O)[C@H](C(C)C)NC1=O [Compound 1139] ({CH2CO}-N[Phe(4-COOH)]DWV[Bip]R[NMeA][dL][Orn]LVTCA-NH2; thioether N-14)
